Reference: US10028992B2, “Methods of treating muscular dystrophy” (BOARD OF REGENTS OF THE NEVADA SYSTEM OF HIGHER EDUCATION …, priority 2012, dated 2018)

System: α7 integrin promoter
Assay: muscle cell-based assay: α7βgal+/− myoblasts/myotubes, LacZ reporter, β-galactosidase cleavage of FDG
Parameters: species or system mouse; Results in α7+/− β-galactosidase assay: scale not given here
Settings: Myoblasts
Procedure, shortened: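 Primary α7βgal+/− mouse myoblasts (LacZ knocked into α7 integrin exon 1, promoter retained), differentiated; promoter activity read as β-galactosidase conversion of non-fluorescent FDG to fluorescein. Hits followed by dose-response, western analysis and myostatin counterscreen.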

| Structure (SMILES) | Results in α7+/− β-galactosidase assay (0.5 uM) | Results in α7+/− β-galactosidase assay (1 uM) | Results in α7+/− β-galactosidase assay (5 uM) | Results in α7+/− β-galactosidase assay (10 uM) | Results in α7+/− β-galactosidase assay (20 uM) | Results in α7+/− β-galactosidase assay (40 uM) |
| --- | --- | --- | --- | --- | --- | --- |
| O=C(N/N=C/c1c[nH]c2ccccc12)c1cc(Cl)ccc1O [drawing 617] | −0.1174 | −0.2374 | 0.2235 | −0.05174 | −0.06378 | −0.0655 |
| O=C(O)C(Cc1ccc(O)cc1)N1C(=O)c2ccccc2C1=O (stereo not drawn) [drawing 619] | 0.1486 | 0.2007 | 0.1591 | −0.04895 | 0.03548 | 0.007087 |
| CCN(CC)C(=O)c1sc2nc(-c3ccc(OC)cc3)cn2c1C [drawing 620] | −0.00349 | −0.01981 | −0.06604 | −0.2175 | −0.4369 | −0.6089 |
| Cc1ccsc1-c1nnc(S)n1C1CCCCC1 [drawing 621] | 0.007736 | 0.002953 | 0.06001 | −0.06828 | −0.1538 | −0.1034 |
| O=C(N[C@@H](Cc1c[nH]c2ccccc12)C(=O)O)C1CCN(S(=O)(=O)c2cccs2)CC1 [drawing 622] | −0.07999 | −0.01966 | −0.1194 | −0.09397 | −0.02534 | −0.04251 |
| COC(=O)Cn1c(=O)c2c(nc3n2CC(C)CN3Cc2ccccc2)n(C)c1=O (stereo not drawn) [drawing 623] | −0.176 | −0.2606 | −0.02637 | −0.1756 | −0.2725 | −0.3826 |
| CCOC(=O)c1cc(C(=O)OCC)c(SCc2ccccc2)nc1O [drawing 624] | −0.1519 | −0.22 | 0.001928 | −0.1374 | −0.174 | −0.1694 |
| Oc1nc2ccccc2nc1-c1c[nH]c2ccccc12 [drawing 625] | −0.1557 | −0.2438 | −0.1427 | −0.1781 | −0.49 | −0.6715 |
| O=C(Nc1cc(-c2nc3ccccc3s2)ccc1Cl)c1ccc2c(c1)OCO2 [drawing 626] | −0.04702 | −0.1444 | 0.02573 | 0.1301 | −0.1679 | −0.4411 |
| Cn1c(-c2ccccc2)cc2ccccc21 [drawing 627] | 0.02349 | −0.0996 | −0.05693 | −0.02616 | −0.2661 | −0.4026 |
| COc1ccc(C(=O)/C=C2\C(=O)Nc3ccccc32)cc1OC [drawing 628] | 0.07545 | −0.02919 | 0.1241 | 0.1545 | −0.335 | −0.4748 |
| CC(C(=O)Nc1ccc(C#N)cc1)N(C)CC(=O)Nc1cccc(F)c1 (stereo not drawn) [drawing 629] | −0.05058 | −0.1543 | −0.4207 | −0.5078 | −0.8278 | −0.7653 |
| CC(C(=O)Nc1ccc(C#N)cc1)N(C)CC(=O)Nc1cccc(F)c1 (stereo not drawn) [drawing 630] | 0.01302 | −0.06275 | 0.01684 | 0.1242 | −0.01497 | −0.1721 |
| CC1Cc2ccccc2N1C(=O)CSc1nnc(N)s1 (stereo not drawn) [drawing 631] | 0.1058 | −0.02327 | 0.003792 | 0.1155 | −0.02505 | −0.07326 |
